“Also recorded” adds a separate entry of the source.
Experiments:
Type in all cases: cell-based, Human
Caki-1 cells [1] = assay: LDH cytotoxicity assay of Caki-1; conditions: 1 day; for cytotoxicity (LDH assay): Caki-1, 10 μM; for Ranking, Cytotoxicity (%): top five target drugs, LDH assay, 10 μM, rank 1 = highest cytotoxicity
Protocol: (§1) Cell culture 2: Caki-1 was purchased from CLS Cell Lines Service (Germany). The cells were maintained in McCoy's SA (modified) medium (16600082, Thermo Fisher Scientific, USA) and supplemented with 10% fetal bovine serum (FBS, F7524, Sigma-Aldrich), 1% Penicillin/Streptomycin (P4333, Sigma-Aldrich).
Lactate dehydrogenase (LDH) assay was performed with LDH Assay Kit (ab65393). 1.5×10^4 cells per well (from cell culture 2) were seeded in a 96-well plate and drugs were treated at 10 μM for 1 day with 200 μl media. 20 μl of media was analysed with LDH Assay Kit as per manufacturer's instruction.

Caki-1 cells [2] = assay: MTT cell viability assay of Caki-1 treated with TG-101209 and its alternatives; conditions: for cell viability (MTT assay) / Ranking, Cell viability (%): 1 day; for Ranking, Cell viability (%): top five target drugs, MTT assay, 10 μM, rank 1 = greatest reduction; for IC50: Homo sapiens, FIG. 43, assay not named, presumably Caki-1 cell viability
Protocol: as §1
The cytotoxic effects of the TG-101209 and its alternatives on the Caki-1 cells were tested by MTT (Thiazolyl Blue Tetrazolium Bromide) method. 1.5×10^4 cells were seeded per well in a 96-well plate in 100 μL growth media. […] After the incubation period, 5 mg/ml MTT (M2128, Sigma-Aldrich) solution in PBS (10 μL) was added to each well. After 1 hour, the MTT solution and all media were removed from the wells. 100 μl of DMSO was added and mixed to dissolve the formazan crystals. Cell viability was analysed by measuring the absorbance of the dissolved formazan at a wavelength of 570 nm with a microplate reader (Hidex Sense Beta Plus).

BUB1B = assay: Western blot, BUB1B expression in Caki-1 treated with TG-101209 alternatives; conditions: Caki-1, 5 μM of target drug, 1 day (FIG. 41; method says 2 days)
Protocol: as §1
The target drugs developed as alternatives to TG-101209, were dissolved in 0.1% DMSO (41639, Sigma-Aldrich). Caki-1 cells from cell culture 2 were seeded in a 6-well plate at 3×10^5 cells per well. […]
The cells were washed with PBS solution and then lysed with CelLytic M (C2978, Sigma-Aldrich) lysis buffer containing protease inhibitors (11836170001, Roche). The cell lysates were centrifuged at 12 000 rpm for 10 min and supernatants were collected. Protein Assay Dye Reagent (5000006, Bio-Rad) was used for the determination of protein concentration. The absorbance of the proteins was measured spectrophotometrically at 595 nm by a microplate reader (Hidex Sense Beta Plus). Protein electrophoresis was performed using Mini-PROTEAN® TGX™ Precast Gels (4561086, Bio-Rad) and then the separated proteins were transferred to a Trans-Blot Turbo Mini 0.2 um PVDF Transfer Packs membrane (1704158, Bio-Rad) by using Trans-Blot® Turbo™ Transfer System (Bio-Rad). The membrane was blocked with 5% skim milk for 30 min at 4° C. with gentle rocking. After blocking, the membrane was treated with primary antibodies: Anti-BUB1B (HPA008419, Human Protein Atlas, Sweden) and Anti-Beta actin (ab8227, Abcam) as a loading control overnight at 4° C. on a rocking platform. After the treatment of primary antibodies, the membrane was washed three times with TBS-T buffer (A09-7500-100, Medicago). Then, Goat anti-Rabbit IgG-HRP (ab205718, Abcam) was treated as the secondary antibody for 30 min at 4° C. with gentle rocking.

Structure (SMILES)	cytotoxicity (LDH assay) (Caki-1 cells [1])	Ranking, Cytotoxicity (%) (Caki-1 cells [1])	cell viability (MTT assay) (Caki-1 cells [2]; Caki-1, 5 μM)	cell viability (MTT assay) (Caki-1 cells [2]; Caki-1, 10 μM)	Ranking, Cell viability (%) (Caki-1 cells [2])	IC50 (Caki-1 cells [2]) [nM]	expression levels of BUB1B (BUB1B)	cell viability (MTT assay) (Caki-1 cells [2]; Caki-1, 10 μM, listed as MS)
Cc1cnc(Nc2ccc(C(=O)Nc3cccc(S(=O)(=O)NC(C)(C)C)c3)cc2)nc1Nc1cccc(S(=O)(=O)NC(C)(C)C)c1 [M101D, N-(3-(N-(tert-butyl)sulfamoyl)phenyl)-4-((4-((3-(N-(tert-butyl)sulfamoyl)phenyl)amino)-5-methylpyrimidin-2-yl)amino)benzamide]	exhibited cytotoxicity; also recorded: highest cytotoxicity; also recorded: greatest cytotoxicity	1	greatest	most profound effect on the cell viability; also recorded: greatest reduction of cell viability; also recorded: greatest reduction in cell viability	2	–	–	–
Cc1cnc(Nc2ccc(N3CCN(C)CC3)cc2)nc1Nc1cccc(S(=O)(=O)Nc2ccccc2)c1 [M3, 3-((5-methyl-2-((4-(4-methylpiperazin-1-yl)phenyl)amino)pyrimidin-4-yl)amino)-N-phenylbenzenesulfonamide]	–	–	–	–	–	~3000	significantly lower the expression levels of BUB1B	–
Cc1cnc(Nc2ccc(C(=O)Nc3cccc(S(=O)(=O)N4CCOCC4)c3)cc2)nc1Nc1cccc(S(=O)(=O)NC(C)(C)C)c1 [M101F, 4-((4-((3-(N-(tert-butyl)sulfamoyl)phenyl)amino)-5-methylpyrimidin-2-yl)amino)-N-(3-(morpholinosulfonyl)phenyl)benzamide]	exhibited cytotoxicity	–	greatest	–	–	–	–	–
Cc1cnc(Nc2ccc(C(=O)Nc3ccc(OCCCN4CCOCC4)cc3)cc2)nc1Nc1cccc(S(=O)(=O)NC(C)(C)C)c1 [M101G, 4-((4-((3-(N-(tert-butyl)sulfamoyl)phenyl)amino)-5-methylpyrimidin-2-yl)amino)-N-(4-(3-morpholinopropoxy)phenyl)benzamide]	–	–	greatest	–	–	–	–	–
Cc1cnc(Nc2ccc(OCCCN3CCOCC3)cc2)nc1Nc1cccc(S(=O)(=O)NC(C)(C)C)c1 [M103, N-(tert-butyl)-3-((5-methyl-2-((4-(3-morpholinopropoxy)phenyl)amino)pyrimidin-4-yl)amino)benzenesulfonamide]	–	–	–	–	–	~3000	–	–
Cc1cnc(Nc2ccc(C(=O)Nc3cccc(Br)c3)cc2)nc1Nc1cccc(S(=O)(=O)NC(C)(C)C)c1 [M101B, N-(3-bromophenyl)-4-((4-((3-(N-(tert-butyl)sulfamoyl)phenyl)amino)-5-methylpyrimidin-2-yl)amino)benzamide]	exhibited cytotoxicity	3	greatest	–	–	–	–	–
Cc1cnc(Nc2ccc(C(=O)Nc3ccc4ncccc4c3)cc2)nc1Nc1cccc(S(=O)(=O)NC(C)(C)C)c1 [M101H, 4-((4-((3-(N-(tert-butyl)sulfamoyl)phenyl)amino)-5-methylpyrimidin-2-yl)amino)-N-(quinolin-6-yl)benzamide]	–	–	greatest	–	–	–	–	–
Cc1cnc(Nc2ccc(N3CCN(C)CC3)cc2)nc1Nc1cccc(S(=O)(=O)N2CCOCC2)c1 [M7, 5-methyl-N2-(4-(4-methylpiperazin-1-yl)phenyl)-N4-(3-(morpholinosulfonyl)phenyl)pyrimidine-2,4-diamine]	–	–	–	–	–	> 3000	significantly lower the expression levels of BUB1B	–
Cc1cn(-c2cc(Nc3ncc(C)c(Nc4cccc(S(=O)(=O)NC(C)(C)C)c4)n3)cc(C(F)(F)F)c2)cn1 [M64, N-(tert-butyl)-3-((5-methyl-2-((3-(4-methyl-1H-imidazol-1-yl)-5-(trifluoromethyl)phenyl)amino)pyrimidin-4-yl)amino)benzenesulfonamide]	–	–	–	–	–	> 3000	significantly lower the expression levels of BUB1B	–
Cc1cnc(Nc2ccc(N3CCN(C)CC3)cc2)nc1Nc1cccc(S(=O)(=O)NC2CCC2)c1 [M5, N-cyclobutyl-3-((5-methyl-2-((4-(4-methylpiperazin-1-yl)phenyl)amino)pyrimidin-4-yl)amino)benzenesulfonamide]	exhibited cytotoxicity; also recorded: highest cytotoxicity; also recorded: greatest cytotoxicity	2	greatest	greatest reduction of cell viability; also recorded: greatest reduction in cell viability	1	~3000	significantly lower the expression levels of BUB1B	most profound effect on the cell viability
COc1cc(Nc2ncc(C)c(Nc3cccc(S(=O)(=O)NC(C)(C)C)c3)n2)cc(OC)c1 [M79, N-(tert-butyl)-3-((2-((3,5-dimethoxyphenyl)amino)-5-methylpyrimidin-4-yl)amino)benzenesulfonamide]	–	–	–	–	–	~3000	significantly lower the expression levels of BUB1B	–
COc1cc(NC(=O)c2ccc(Nc3ncc(C)c(Nc4cccc(S(=O)(=O)NC(C)(C)C)c4)n3)cc2)cc(OC)c1 [M101A, 4-((4-((3-(N-(tert-butyl)sulfamoyl)phenyl)amino)-5-methylpyrimidin-2-yl)amino)-N-(3,5-dimethoxyphenyl)benzamide]	exhibited cytotoxicity	5	greatest	most profound effect on the cell viability	4	–	–	–
Cc1ccc(Nc2ncc(C)c(Nc3cccc(S(=O)(=O)NC(C)(C)C)c3)n2)cc1S(N)(=O)=O [M66, N-(tert-butyl)-3-((5-methyl-2-((4-methyl-3-sulfamoylphenyl)amino)pyrimidin-4-yl)amino)benzenesulfonamide]	exhibited cytotoxicity	4	greatest	most profound effect on the cell viability	3	–	significantly lower the expression levels of BUB1B	–
